Data as given in patent publication US20220402883A1, “COMPOUNDS AND METHODS FOR MODULATING RNA FUNCTION” (Arrakis Therapeutics, Inc., priority 2016, published 2022).
Entries after “also recorded” stand apart in the source; their conditions may differ.

How the values were obtained:
[1] = test system: RNA3WJ_1.0.0_5IB_3FAM (cis 3WJ with one unpaired nucleotide); assay: Fluorescence quenching binding assay (FAM / Iowa Black); settings: two concentration points
Description: (§1) This assay will be used to test binding of compounds for RNA three way junction (such as a 38 nt construct). This is a fluorescence quenching assay utilizing FAM as fluorescence tag and Iowa Black as quencher. Tags are attached at the 3′ and 5′ end, respectively. Stable formation of MW upon compound binding would lead to quenching of the FAM fluorescence due to close proximity of the Iowa Black tag. Assay readout: FAM (485-520 nm) Fluorescence Intensity.
(§2) Assay sample buffer used: 10 mM CacoK pH 7.2, 30 mM NaCl. Buffer preparation in Dnase/Rnase Free distilled water (Gibco Life Technologies).
(§3) Dilute the RNA 1:10 (final 10 μM) in Assay Buffer.
(§4) Heat up the diluted RNA up to 90° C. for 5 min (sealed Eppendorf Tube).
(§5) Cool down the RNA probe slowly to RT.
(§6) Dilute the compounds to 800 μM in DMSO (Assay: 8 μM).
(§7) Final concentrations in the sample: 1-10 μM RNA, 8 μM compound, 1% DMSO
(§8) Pipet 25 μL Sample Solution into Greiner cat #784076, black, 384
(§9) Measure the 96 plate with the LightCycler480 (Channel: 485/520 nm).
(§10) The fluorescence quenching experiment was repeated for compounds Ark0000013 and Ark0000014 to measure binding with:
A) RNA3WJ_1.0.0_5IB_3FAM (cis 3WJ with one unpaired nucleotide)
(§11) Both cmpds were tested at two concentration points in the fluorescence quenching assays to assess effect upon RNA constructs utilized in the study. […]

RNA3WJ_2.0.0_5IB_3FAM = assay: Thermal shift binding assay; settings: 1 μM RNA, 8 μM compound, 10 mM CacoK pH 7.2, 30 mM NaCl
Text: (§12) Purpose: Test binding of compounds for RNA three way junction (for example, a construct of 38 nt). Thermal shift assay based on established fluorescence quenching assay utilizing FAM as fluorescence tag and Iowa Black as quencher. Tags were attached at the 3′ and 5′ end, respectively. Stable formation of 3WJ upon compound binding would lead to quenching of the FAM fluorescence due to close proximity of the Iowa Black tag. Thermal unfolding leads to increase of fluorescence emission. Assay readout: FAM (465-510 nm) Thermal Shift.
as §2, §3, §4, §5, §6
(§13) Final concentrations in the sample: 1 μM RNA, 8 μM compound, 1% DMSO
(§14) Pipet 20 μL Sample Solution into Roche, Light Cycler480 Multiwell Plate96, white, REF 04729692001.
(§15) Measure the 96 plate with the LightCycler480 (Channel: 480/510 nm; Temperature: 41-91° C.).
(§16) Analyse measurement-data with the MeltingCurveGenotyping Mode.
(§17) Settings: Acquisition mode: continuous; Ramp rate: 0.1° C./sec; Acquisition: 6° C.
(§18) Curves are fitted with raw and normalized data.
(§19) Melting curves analysis show melting temperature (Tm) of ˜51° C. Range of RNA concentrations was tested and assay window was determined (conc. range of 0.5-1 μM yields best results). The choice of buffer also affected the Tm. RNA constructs were tested under different buffer conditions (especially in presence of salt) in the thermal shift assay. […] CacoK with 30 mM salt at 1 μM RNA conc. was used to assess compound effects on 3WJ stability. […] These conditions were used for screening test compounds.

RNA3WJ_2.1.0_5IB_3FAM = assay: Thermal shift binding assay; settings: 1 μM RNA, 8 μM compound, 10 mM CacoK pH 7.2, 30 mM NaCl
Text: as §12, §2, §3, §4, §5, §6, §13, §14, §15, §16, §17, §18, §19

RNA3WJ_1.1.0_5IB_3FAM = assay: Thermal shift binding assay; settings: 1 μM RNA, 8 μM compound, 10 mM CacoK pH 7.2, 30 mM NaCl
Text: as §12, §2, §3, §4, §5, §6, §13, §14, §15, §16, §17, §18, §19

RNA3WJ_1.1.1_5IB_3FAM = assay: Thermal shift binding assay; settings: 1 μM RNA, 8 μM compound, 10 mM CacoK pH 7.2, 30 mM NaCl
Text: as §12, §2, §3, §4, §5, §6, §13, §14, §15, §16, §17, §18, §19

[2] = test system: Split3WJ.2_up_5IB+Split3WJ.2_down_3FAM (trans 3WJ as 1:1 mix; Split3WJ_2); assay: Thermal shift binding assay; settings: 1 μM RNA, 8 μM compound, 10 mM CacoK pH 7.2, 30 mM NaCl
Text: as §12, §2, §3, §4, §5, §6, §13, §14, §15, §16, §17, §18, §19
(§20) Compounds Ark0000013 and Ark0000014 were also tested in the thermal shift assay against three RNA 3WJ constructs, A) RNA3WJ_1.0.0_5IB_3FAM (cis 3WJ with one unpaired nucleotide); B) Split3WJ.1_up_5IB+Split3WJ.1_down_3FAM (trans 3WJ as 1:1 mix); and C) Split3WJ.2_up_5IB+Split3WJ.2_down_3FAM (trans 3WJ as 1:1 mix).

[3] = test system: Split3WJ.1_up_5IB+Split3WJ.1_down_3FAM (trans 3WJ as 1:1 mix; Split3WJ_1); assay: Thermal shift binding assay; settings: 1 μM RNA, 8 μM compound, 10 mM CacoK pH 7.2, 30 mM NaCl
Text: as §12, §2, §3, §4, §5, §6, §13, §14, §15, §16, §17, §18, §19, §20

[4] = test system: RNA3WJ_1.0.0_5IB_3FAM (cis 3WJ with one unpaired nucleotide); assay: Thermal shift binding assay; settings: 1 μM RNA, 8 μM compound
Text: as §12, §2, §3, §4, §5, §6, §13, §14, §15, §16, §17, §18, §19, §20

RNA3WJ_3.0.0_5IB_3FAM = assay: Thermal shift binding assay; settings: 1 μM RNA, 8 μM compound, 10 mM CacoK pH 7.2, 30 mM NaCl
[5] = test system: RNA3WJ_0.0.0_5IB_3FAM (3WJ_0.0.0_5IB_3FAM RNA construct); assay: Thermal shift binding assay
Procedure, shortened: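 A 3WJ RNA construct, 5′-Iowa Black/3′-FAM labelled and annealed (90° C. for 5 min, slow cooling), was tested at 1 μM with 8 μM compound, 1% DMSO, in 10 mM CacoK pH 7.2, 30 mM NaCl. FAM fluorescence (480/510 nm) monitored from 41 to 91° C. at 0.1° C./sec. Compound effect on 3WJ stability taken from Tm shift of melting curves.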

[6] = test system: Split3WJ.2 up_5IB+Split3WJ.2_down_3FAM (trans 3WJ as 1:1 mix); assay: Fluorescence quenching binding assay (FAM / Iowa Black); settings: two concentration points
Description: as §1, §2, §3, §4, §5, §6, §7, §8, §9, §10
C) Split3WJ.2 up_5IB+Split3WJ.2_down_3FAM (trans 3WJ as 1:1 mix)
as §11

[7] = 1 μM RNA, 8 μM compound, 10 mM CacoK pH 7.2, 30 mM NaCl

## CN(CCCN)CCCNC(=O)c1ccc2c(c1)C1c3cc(C(=O)NCCCN(C)CCCN)ccc3C2c2ccc(C(=O)NCCCN(C)CCCN)cc21 [Ark000013, N^2,N^7,N^15-tris(3-((3-aminopropyl)(methyl)amino)propyl)-9,10-dihydro-9,10-[1,2]benzenoanthracene-2,7,15-tricarboxamide]
[1]
  fluorescence quenching effect (FAM fluorescence signal): significant concentration dependent effect
RNA3WJ_2.0.0_5IB_3FAM
  Melting temp + cmpd: 84.3 °C
  Temp. Shift: 22.1 °C
RNA3WJ_2.1.0_5IB_3FAM
  Melting temp + cmpd: 45.7 °C
  Temp. Shift: 3.8 °C
RNA3WJ_1.1.0_5IB_3FAM
  Melting temp + cmpd: 85.5 °C
  Temp. Shift: 22.2 °C
RNA3WJ_1.1.1_5IB_3FAM
  Melting temp + cmpd: 82.9 °C
  Temp. Shift: 20.7 °C
[2]
  Melting temp + cmpd: 56.9 °C
  Temp. Shift: ~13 °C
[2]; listed as Ark0000013
  Temp. Shift: 12.2 °C
[3]
  Melting temp + cmpd: 58.2 °C
  Temp. Shift: ~21 °C
[3]; listed as Ark0000013
  Temp. Shift: 20.4 °C
[4]
  effect in the melting curves (in words): significantly lower fluorescence signal; also recorded: no proper melting curve
[4]; 10 mM CacoK pH 7.2, 30 mM NaCl
  Melting temp + cmpd: 87.0 °C
  Temp. Shift: 21.4 °C
RNA3WJ_3.0.0_5IB_3FAM
  Melting temp + cmpd: 83.7 °C
  Temp. Shift: 21.7 °C
[5]; [7]
  Melting temp + cmpd: 84.1 °C
  Temp. Shift: 24.2 °C
[5]; RNA sequence 3WJ_0.0.0_5IB_FAM, melting temperature in presence of compound
  Melt. Temp. with cmpd: 84.1 °C
[5]; RNA sequence 3WJ_0.0.0_5IB_FAM, with cmpd minus without cmpd
  Shift melt. Temp.: +24.2 °C
[6]
  fluorescence quenching effect (FAM fluorescence signal): significant concentration dependent effect
